According to the METLIN SMRT retention time set (Domingo-Almenara et al. 2019):

Test: gradient 5% acetonitrile 3 min, to 50% in 2 min, to 85% in 15 min, held 3 min, 100 µL/min
Conditions: column: Zorbax Extend-C18 2.1 x 50 mm; eluents: water / acetonitrile, 0.1% formic acid
Summary of the method: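 Retention times come from adduct peaks that were picked computationally and then checked by hand. The standards, pure and pooled in mixtures of ~100 molecules, were run on a Zorbax Extend-C18 column (2.1 × 50 mm, 1.8 μm) at 100 μL/min with water and acetonitrile, each with 0.1% formic acid. Detection was by quadrupole time-of-flight mass spectrometry in positive and negative ionization mode, with a dead volume of 40 μL and a dwell volume of 900 μL.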

RP-LC retention time [s] | Compound
720 | CCCc1cnc2c(c1SC(C(C)=O)C(=O)N(C)C)c(=O)n(C)c(=O)n2C (stereo not drawn)
674 | O=C(Nc1c(-c2ccccc2)nc2ccc(Cl)cn12)c1ccco1
580 | CCOc1cc(CN2CCCC2c2cc(C)no2)ccc1OCC(N)=O (stereo not drawn)
612 | COCCC(=O)N1CCOc2ccc(N(C)C)cc2C1
779 | CCN1C(=O)c2c(C(=O)NCCc3ccc(C)cc3)ncn2CC1(C)C(=O)NC1CCCC1 (stereo not drawn)
598 | Cc1ccc(CNC(=O)C2(C)Cn3nc(C(=O)NCCCN4CCCCC4)cc3C(=O)N2C)cc1 (stereo not drawn)
824 | Cc1nnc(-c2ccc3ccn(CC(=O)NCCc4ccc(Cl)cc4)c3c2)o1
685 | O=C(c1cccc(F)c1)N1CCC[C@H]1c1nc(-c2ccccc2)n[nH]1
918 | Cc1ccc(C)c(NC(=O)CN2C(=O)CCCc3cc(S(=O)(=O)N4CCCC4)ccc32)c1
706 | Cc1noc(C)c1S(=O)(=O)N1CC(N(Cc2cccnc2)CC(C)C)C1
712 | O=C(Cc1cccs1)N1CCCCC1c1nncn1-c1ccccc1 (stereo not drawn)
587 | Cc1ccc(CN2CCC(N3CC(F)(F)C[C@H]3COc3cccnc3)CC2)s1
830 | COC(=O)c1ccc(NC(=O)N(Cc2cc(=O)[nH]c3ccccc23)CC(C)C)cc1
1150 | Cn1nccc1-c1cccc(-c2noc(-c3cccc(F)c3)n2)c1
1000 | Cn1cc2c3c(cccc31)CN(C(=O)Nc1ccc(Br)cc1F)CC2
907 | O=C(CN1C(=O)C(C(=O)N2CCCCC2)Sc2ccccc21)N1CCN(c2ccccc2)CC1 (stereo not drawn)
579 | CCOC(=O)C1CCCN(Cc2nc3nc(C)cc(N4CCCC4)n3n2)C1 (stereo not drawn)
693 | CCCN1CCN(C(=O)C2CCN(c3nc4ccc(-c5ccccc5)nc4s3)CC2)CC1
774 | CCC(C)C(NC(=O)c1ccc(F)c(F)c1)C(=O)Nc1nc2ccccc2[nH]1 (stereo not drawn)
761 | CCn1cc(CCNC(=O)Nc2cccc(Cl)c2C)c2cccnc21
845 | Cc1cc(Cl)ccc1S(=O)(=O)N1CCCC1c1nncn1-c1ccccc1 (stereo not drawn)
596 | COc1ccc(Cc2nnc(N)o2)cc1

RP-LC retention time [s] | Compound
858 | O=C(Nc1nnc(Cc2cccs2)o1)c1cc2cc([N+](=O)[O-])ccc2s1
813 | O=C(OCc1cccnc1)c1cn(-c2cccc(Cl)c2)c(=O)c2ccccc12
744 | CN(C)c1ccc(-c2nc3ccc(Cl)cn3c2Nc2ccc3c(c2)OCCO3)cc1
664 | CC1CCN(S(=O)(=O)c2ccc(-c3nnc(C(=O)NCCCN4CCOCC4)o3)cc2)CC1
915 | Cc1ccc(-c2nc3ncccn3c2Nc2cccc(Cl)c2C)cc1
882 | COc1ccc(S(=O)(=O)Cc2nc(-c3ccccc3C)no2)cc1OC
1030 | COc1ccc(N2CC(c3noc(-c4cccc(Cl)c4)n3)CC2=O)cc1 (stereo not drawn)
963 | COc1ccc(-c2cc3nn(CC(=O)Nc4ccc(C)cc4F)c(=O)n3c(C)n2)cc1
642 | CC1=C(c2ccc(Cl)cc2)S(=O)(=O)N=C1N1CCC(C(=O)NCCN(C)C)CC1
556 | CC(=O)c1cccc(NC(=O)N2CCc3nc[nH]c3C2)c1
782 | O=C(NCC1CCOCC1)c1ccc2ccccc2n1
848 | COc1ccc(N2CCN(c3ncc(S(=O)(=O)c4ccccc4)c(N)n3)CC2)cc1
1020 | O=C1CC(c2noc(-c3cc(F)ccc3Cl)n2)CN1c1ccc(F)cc1 (stereo not drawn)
733 | CCOc1ccc(NC(=O)c2cccn2-c2cccnc2)cc1
536 | Cc1sc2cc(C(=O)NCCN(C)C)[nH]c2c1CN1CCCCC1
767 | O=C(Nc1nnc(Cc2ccccc2)s1)C1CCN(C(=O)c2ccccc2)CC1
734 | CC(=O)c1cccc(NC(=O)c2nc3nc(C)cc(C(F)F)n3n2)c1
921 | CN1C(=O)C2CCCCN2c2ccc(C(=O)NCCc3c[nH]c4ccc(Cl)cc34)cc21 (stereo not drawn)
573 | CN(CCNc1nc2ccncc2n(Cc2ccccc2)c1=O)C1CCCCC1
654 | COc1cccc(CNC(=O)N2CCCC(Cn3cnc4cccnc43)C2)c1 (stereo not drawn)
833 | Cc1ccc(CNC(=O)c2cccc(C3CCCN(C(=O)NC(C)C)C3)c2)o1 (stereo not drawn)
779 | O=C(CCn1c(N2CCCC2)nc2ccsc2c1=O)NCc1ccc(F)cc1F

RP-LC retention time [s] | Compound
680 | COc1ccc(OC)c(CNC(=O)c2ccc3[nH]c4c(c3c2)CN(C(C)=O)CC4)c1
659 | CCc1ccc2oc(C(=O)NCC(c3ccccc3OC)N(C)C)cc(=O)c2c1 (stereo not drawn)
794 | Cc1cc(=O)n(CC(=O)Nc2cccc(C)c2C)c(N(C)Cc2ccccc2)n1
671 | Cc1nn(-c2ccccc2)c2c1-c1sc(C(=O)N3CCN(c4ccccn4)CC3)cc1CC2
826 | O=C(NCc1ccccc1)C1CCCN(S(=O)(=O)c2c[nH]c(C(=O)N3CCCCCC3)c2)C1 (stereo not drawn)
701 | Cc1cccn2cc(-c3ccc(NS(=O)(=O)c4ccc(Cl)cc4)cc3)nc12
888 | CCc1nnc(-c2cn(CC(=O)Nc3ccc(F)c(F)c3)c3ccccc23)o1
1020 | O=c1c2cc(-c3ccc4c(c3)OCO4)nn2ccn1Cc1nc(-c2ccc(F)cc2)no1
743 | Cc1ccc(NC(=O)N2CCC(OC3CCN(S(C)(=O)=O)CC3)CC2)c(C)c1
820 | CCn1nc(CNC(=O)c2cncc(Br)c2)c2ccccc21
722 | CCc1cccc(NC(=O)Cn2nc3n(c2=O)CCCCC3)c1
1230 | Cc1ccc(Sc2nccnc2N2CCCC(C(=O)Nc3ccc(F)c(C)c3)C2)cc1 (stereo not drawn)
581 | CCN1CCN(c2nc(F)c3c(c2F)S(=O)(=O)CCN3CCOC)CC1
733 | CCOc1ccc(CC(=O)NCCc2nc3cccnc3n2C)cc1
939 | CCc1noc(NC(C)=O)c1-c1ccc(OC)c(S(=O)(=O)NC2CCCCCCC2)c1
767 | O=S(=O)(CCOc1ccc(F)cc1)Nc1ccc(N2CCOCC2)cc1
876 | CCn1c(=O)sc2cc(S(=O)(=O)N3CCC(C(=O)NC4CCCCC4)CC3)ccc21
912 | CCOCCCNC(=O)c1ccc(OCc2nnc(C(=O)Nc3ccc(F)c(F)c3)s2)cc1
562 | Cn1c(C2CCN(C(=O)c3cc4c(s3)CCCC4)C2)nc2ccncc21 (stereo not drawn)
819 | O=C(c1ccccc1)N1CCc2cc(CNS(=O)(=O)c3ccccc3)ccc21
763 | Cc1ccc(-c2nc(N3CC(C)OC(C)C3)c3ccccc3n2)cc1 (stereo not drawn)
866 | COc1ccc(N2CC(c3nc(-c4ccc(C)cc4)no3)CC2=O)cc1OC (stereo not drawn)

RP-LC retention time [s] | Compound
887 | COc1cccc(CN2N=C(C(=O)N3CCOCC3)S(=O)(=O)c3cc(Cl)ccc32)c1
882 | CC1CN(c2nc3ccccc3nc2SCC(=O)N2CCOCC2)CC(C)O1 (stereo not drawn)
616 | CN1CCN(S(=O)(=O)c2ccc(C3CCCCC3)cc2)CC1
869 | O=C(O)C1CCN(c2nc3ccc(-c4ccccc4F)nc3s2)CC1
742 | COc1ccc(CCc2nc3cc(-c4c(C)noc4C)ccc3n2C[C@H](C)N2CCOCC2)cc1Cl
752 | Cc1ccc(Nc2nc(C(=O)N3CCN(S(C)(=O)=O)CC3)cs2)c(C)c1
1260 | CC(Oc1ccccc1F)C(=O)Nc1ccc(-c2nc(-c3ccccc3)no2)cc1 (stereo not drawn)
1090 | CCOC(=O)c1cccc(NC(=O)Cn2c(C)nc3c(sc4nc(-c5ccccc5)ccc43)c2=O)c1
621 | CCOCCCNC(=O)c1c(OCC)cc(=O)n2c1CCCCC2
608 | O=C(NCC1CCCO1)C1COC2(CCN(C(=O)C3CC3)CC2)N1C(=O)c1ccccc1 (stereo not drawn)
804 | Cc1cc(C)cc(C(=O)N2CCC3(CC2)NC(=O)c2ccccc2N3C)c1
1000 | COc1ccc(OC)c(Nc2c(-c3ccc(Br)cc3)nc3cnccn23)c1
776 | O=C(CCNc1c(-c2cccc(F)c2)nc2cnccn12)NCc1ccc(F)cc1F
719 | COc1ccc(Cl)cc1S(=O)(=O)NCCn1nc(C)cc1C
873 | Cc1cccc(-c2nnc(SCc3cc(=O)n4c(C)csc4n3)o2)c1
660 | O=C(NCc1ccc2c(c1)OCO2)C1CCCN(c2ccnc(-c3ccc(F)cc3)n2)C1 (stereo not drawn)
692 | CCCn1cnc2cc(CNC(=O)COc3ccc(Cl)cc3C)ccc21
725 | N#Cc1ccsc1NC(=O)c1ccc2ncsc2c1
672 | COc1cccc(-c2nc3cnccn3c2NCCC(=O)Nc2ccc3c(c2)OCCO3)c1
651 | CCCNC(=O)C1CCCN(c2ccc(SCC(=O)Nc3c(C)cccc3C)nn2)C1 (stereo not drawn)
649 | O=C(Nc1cc(Cl)ccc1F)C1CCCN(c2nnc3ccccn23)C1 (stereo not drawn)
694 | Cc1noc(-c2cccc(OC3CN(C(=O)C4CCOC4)C3)c2)n1 (stereo not drawn)
